# Source: US5488060A, “Substituted thiadiazoles, compositions containing them and their use as antimicrobial and marine antifouling agents” (The Dow Chemical Company, priority 1994, dated 1996)
# Read-outs that look alike come from different tables or passages of the source.
# Key:
# Type in all cases: cell-based
# [1] = tested on: Staphylococcus aureus (Sa); test: Minimum inhibitory concentration (MIC) in nutrient agar, Staphylococcus aureus
# Procedure: (§1) The antimicrobial activity of the compounds of the present invention is set forth as the minimum inhibitory concentration (MIC) for the active compounds and is determined for nine (9) bacteria, using nutrient agar, and seven (7) yeast and fungi, using malt yeast agar. This determination is conducted using a one percent solution of the test compound prepared in a mixture of acetone and water.
# (§2) Nutrient agar is prepared at pH 6.8, representing a neutral medium, and at pH 8.2, representing an alkaline medium. The nutrient agars are prepared by adding 23 g of nutrient agar to one-liter of deionized water. In addition, the alkaline medium is prepared by adjusting a 0.04M solution of N-[tris-(hydroxymethyl)methyl]glycine buffered deionized water with concentrated sodium hydroxide to a pH of 8.5.
# (§3) The test tubes containing the agar are cooled in a water bath until the temperature of the agar is 48° C. Then, an appropriate amount of the one percent solution of the test compound is added (except in the controls where no compound is added) to the respective test tubes so that the final concentrations are 500, […], 100, 50, 25, 10, 5, 2.5, 1.0 and zero parts per million of the test compound in the agar, thus having a known concentration of test compound dispersed therein. The contents of the test tubes are then transferred to respective petri plates. After drying for 24 hours, the petri plates containing nutrient agar are inoculated with bacteria and those containing malt yeast agar are inoculated with yeast and fungi.
# (§4) The inoculation with bacteria is accomplished by using the following procedure. Twenty-four hour-cultures of each of the bacteria are prepared by incubating the respective bacteria in tubes containing nutrient broth for 24 hours at 30° C. in a shaker. Dilutions of each of the 24 hour-cultures are made so that nine separate suspensions (one for each of the nine test bacteria) are made, each containing 10^8 colony forming units (CFU) per mL of suspension of a particular bacteria. Aliquots of 0.3 mL of each of the bacterial suspensions are used to fill the individual wells of Steer's Replicator. For each microbial suspension, 0.3 mL was used to fill three wells (i.e., three wells of 0.3 mL each) so that for the nine different bacteria, 27 wells are filled. The Steer's Replicator is then used to inoculate both the neutral and alkaline pH nutrient agar petri plates.
# (§5) The inoculated petri plates are incubated at 30° C. for 48 hours and then read to determine if the test compound which is incorporated into the agar prevented growth of the respective bacteria.
# [2] = tested on: Pseudomonas aeruginosa (PRD-10); test: Minimum inhibitory concentration (MIC) in nutrient agar, Pseudomonas aeruginosa PRD-10
# Procedure: as §1, §2, §3, §4, §5
# Aspergillus niger (An) = test: Minimum inhibitory concentration (MIC) in malt yeast agar, Aspergillus niger
# Procedure: as §1
# (§6) Malt yeast agar is prepared at pH 5.5 by adding 3 g yeast extract and 45 g malt agar per liter of deionized water. The specific agar is dispensed in 30 mL aliquots into 25×200 mm test tubes, capped and autoclaved for 15 minutes at 115° C.
# as §3
# (§7) The inoculation with the yeast and fungi is accomplished as follows. Cultures of yeast and fungi are incubated for seven days on malt yeast agar at 30° C. These cultures are used to prepare suspensions by the following procedure. A suspension of each organism is prepared by adding 10 mL of sterile saline and 10 microliters of octylphenoxy polyethoxy ethanol to the agar slant of yeast or fungi. The sterile saline/octylphenoxy potyethoxy ethanol solution is then agitated with a sterile swab to suspend the microorganism grown on the slant. Each resulting suspension is diluted into sterile saline (1 part suspension: 9 parts sterile saline). Aliquots of these dilutions are placed in individual wells of Steer's Replicator and petri plates inoculated as previously described. The petri plates are incubated at 30° C. and read after 48 hours for yeast and 72 hours for fungi.
# [3] = tested on: Penicillium chrysogenum (Pc); test: Minimum inhibitory concentration (MIC) in malt yeast agar, Penicillium chrysogenum
# Procedure: as §1, §6, §3, §7
# Proteus vulgaris (Pv) = test: Minimum inhibitory concentration (MIC) in nutrient agar, Proteus vulgaris
# Procedure: as §1, §2, §3, §4, §5
# Escherichia coli (Ec) = test: Minimum inhibitory concentration (MIC) in nutrient agar, Escherichia coli
# Procedure: as §1, §2, §3, §4, §5
# [4] = tested on: Aureobasidium pullulan (Ap); test: Minimum inhibitory concentration (MIC) in malt yeast agar, Aureobasidium pullulan
# Procedure: as §1, §6, §3, §7
# Candida albicans (Ca) = test: Minimum inhibitory concentration (MIC) in malt yeast agar, Candida albicans
# Procedure: as §1, §6, §3, §7
# Bacillus subtilis (Bs) = test: Minimum inhibitory concentration (MIC) in nutrient agar, Bacillus subtilis
# Procedure: as §1, §2, §3, §4, §5
# [5] = tested on: Pseudomonas aeruginosa (Pa); test: Minimum inhibitory concentration (MIC) in nutrient agar, Pseudomonas aeruginosa; details: 30° C., 48 hours, read-out: Minimum Inhibitory Concentration, Pa
# Procedure: as §1, §2, §3, §4, §5
# Fusarium oxysporum (Fo) = test: Minimum inhibitory concentration (MIC) in malt yeast agar, Fusarium oxysporum
# Procedure: as §1, §6, §3, §7
# Trichoderma viride (Tv) = test: Minimum inhibitory concentration (MIC) in malt yeast agar, Trichoderma viride
# Procedure: as §1, §6, §3, §7
# [6] = tested on: Klebsiella pneumoniae (Kp); test: Minimum inhibitory concentration (MIC) in nutrient agar, Klebsiella pneumoniae
# Procedure: as §1, §2, §3, §4, §5
# [7] = tested on: Salmonella choleraesuis (Se); test: Minimum inhibitory concentration (MIC) in nutrient agar, Salmonella choleraesuis; details: Salmonella enterica
# Procedure: as §1, §2, §3, §4, §5
# [8] = tested on: Saccharomyces cerevisiae (Sc); test: Minimum inhibitory concentration (MIC) in malt yeast agar, Saccharomyces cerevisiae
# Procedure: as §1, §6, §3, §7
# [9] = tested on: Enterobacter aerogenes (Ea); test: Minimum inhibitory concentration (MIC) in nutrient agar, Enterobacter aerogenes; details: Klebsiella aerogenes
# Procedure: as §1, §2, §3, §4, §5
# [10] = 48 h, pH 8.2, read-out: Minimum Inhibitory Concentration, Sa
# [11] = pH 6.8, nutrient agar, 30° C., 48 hours, read-out: Minimum Inhibitory Concentration, Sa
# [12] = 48 h, pH 6.8, read-out: Minimum Inhibitory Concentration, PRD
# [13] = 48 h, pH 8.2, read-out: Minimum Inhibitory Concentration, PRD
# [14] = 72 h, pH 5.5, read-out: Minimum Inhibitory Concentration, PC
# [15] = 48 h, pH 6.8, read-out: Minimum Inhibitory Concentration, Pv
# [16] = 48 h, pH 8.2, read-out: Minimum Inhibitory Concentration, Pv
# [17] = 48 h, pH 8.2, read-out: Minimum Inhibitory Concentration, Ec
# [18] = pH 5.5, read-out: Minimum Inhibitory Concentration, Ap
# [19] = 48 h, pH 8.2, read-out: Minimum Inhibitory Concentration, Bs
# [20] = pH 6.8, nutrient agar, 30° C., 48 hours, read-out: Minimum Inhibitory Concentration, Bs
# [21] = 72 h, pH 5.5, read-out: Minimum Inhibitory Concentration, Fo
# [22] = 72 h, pH 5.5, read-out: Minimum Inhibitory Concentration, Tv
# [23] = 48 h, pH 8.2, read-out: Minimum Inhibitory Concentration, Kp
# [24] = pH 6.8, nutrient agar, 30° C., 48 hours, read-out: Minimum Inhibitory Concentration, Kp
# [25] = 48 h, pH 8.2, read-out: Minimum Inhibitory Concentration, SC
# [26] = pH 6.8, nutrient agar, 30° C., 48 hours, read-out: Minimum Inhibitory Concentration, SC
# [27] = 48 h, pH 6.8, read-out: Minimum Inhibitory Concentration, Ea
# [28] = 48 h, pH 8.2, read-out: Minimum Inhibitory Concentration, Ea
# [29] = pH 8.2, nutrient agar, 30° C., 48 hours, read-out: Minimum Inhibitory Concentration, Sa
# [30] = pH 5.5, malt yeast agar, 30° C., 72 hours for fungi, read-out: Minimum Inhibitory Concentration, An
# [31] = 48 h, pH 6.8, read-out: Minimum Inhibitory Concentration, Ec
# [32] = pH 5.5, malt yeast agar, 30° C., read-out: Minimum Inhibitory Concentration, Ap
# [33] = 48 h, pH 5.5, read-out: Minimum Inhibitory Concentration, Ca
# [34] = pH 5.5, malt yeast agar, 30° C., 72 hours for fungi, read-out: Minimum Inhibitory Concentration, Fo
# [35] = 48 h, pH 6.8, read-out: Minimum Inhibitory Concentration, SC
# [36] = pH 5.5, malt yeast agar, 30° C., 48 hours for yeast, read-out: Minimum Inhibitory Concentration, SC
# [37] = pH 5.5, malt yeast agar, 30° C., 72 hours for fungi, read-out: Minimum Inhibitory Concentration, Tv
SMILES,"MIC [1, 11] [µg/mL]","MIC [2, 12] [µg/mL]","MIC [2, 13] [µg/mL]","MIC [3, 14] [µg/mL]",MIC (Proteus vulgaris (Pv); [15]) [µg/mL],MIC (Proteus vulgaris (Pv); [16]) [µg/mL],MIC (Escherichia coli (Ec); [17]) [µg/mL],MIC (Bacillus subtilis (Bs); [19]) [µg/mL],MIC (Bacillus subtilis (Bs); [20]) [µg/mL],"MIC ([5]; pH 6.8, nutrient agar) [µg/mL]","MIC ([5]; pH 8.2, nutrient agar) [µg/mL]","MIC [6, 23] [µg/mL]","MIC [6, 24] [µg/mL]","MIC [7, 25] [µg/mL]","MIC [9, 27] [µg/mL]","MIC [9, 28] [µg/mL]",MIC (Aspergillus niger (An); [30]) [µg/mL],MIC (Escherichia coli (Ec); [31]) [µg/mL],MIC (Candida albicans (Ca); [33]) [µg/mL],"MIC [8, 36] [µg/mL]",also measured
"N#CSc1nsnc1-c1ccccc1Cl [Example IV, 4-(2-Chlorophenyl)-3-thiocyanatol-1,2,5-thiadiazole]",25,> 500,500,10,> 500,500,500,250,< 10,> 500,500,500,> 500,500,> 500,500,–,–,–,–,"MIC [1, 10]: 500 µg/mL; MIC (Aspergillus niger (An); 72 h, pH 5.5, read-out: Minimum Inhibitory Concentration, An): 25 µg/mL; MIC (Escherichia coli (Ec); pH 6.8, nutrient agar, 30° C., 48 hours, read-out: Minimum Inhibitory Concentration, Ec): 250 µg/mL; MIC [4, 18]: 5 µg/mL; MIC (Candida albicans (Ca); pH 5.5, malt yeast agar, 30° C., 48 hours for yeast, read-out: Minimum Inhibitory Concentration, Ca): < 10 µg/mL; MIC (Fusarium oxysporum (Fo); [21]): 5 µg/mL; MIC (Trichoderma viride (Tv); [22]): 10 µg/mL; MIC [7, 26]: 100 µg/mL; MIC ([8]; 48 h, pH 5.5, read-out: Minimum Inhibitory Concentration, SC): 2.5 µg/mL"
"CSc1ccc(-c2nsnc2SC#N)cc1 [Example IX, 4-(4-Methylthiophenyl)-3-thiocyanato-1,2,5-thiadiazole]",–,> 500,500,< 10,> 500,500,500,250,< 10,> 500,500,500,> 500,500,> 500,500,< 10,> 500,50,< 10,"MIC ([1]; 48 h, pH 6.8, read-out: Minimum Inhibitory Concentration, Sa): 50 µg/mL; MIC [1, 29]: 250 µg/mL; MIC [4, 32]: < 10 µg/mL; MIC (Fusarium oxysporum (Fo); [34]): < 10 µg/mL; MIC (Trichoderma viride (Tv); [22]): < 10 µg/mL; MIC [7, 35]: > 500 µg/mL"
"N#CSc1nsnc1-c1ccc(F)cc1 [Example V, 4-(4-Fluorophenyl)-3-thiocyanato-1,2,5-thiadiazole]",25,–,–,2.5,–,–,–,–,< 10,100,100,–,100,–,–,500,5,50,25,5,"MIC [1, 29]: 50 µg/mL; MIC ([2]; pH 6.8, nutrient agar, 30° C., 48 hours, read-out: Minimum Inhibitory Concentration, PRD): 250 µg/mL; MIC ([2]; pH 8.2, nutrient agar, 30° C., 48 hours, read-out: Minimum Inhibitory Concentration, PRD): 250 µg/mL; MIC (Proteus vulgaris (Pv); pH 6.8, nutrient agar, 30° C., 48 hours, read-out: Minimum Inhibitory Concentration, Pv): 25 µg/mL; MIC (Proteus vulgaris (Pv); pH 8.2, nutrient agar, 30° C., 48 hours, read-out: Minimum Inhibitory Concentration, Pv): 100 µg/mL; MIC (Escherichia coli (Ec); pH 8.2, nutrient agar, 30° C., 48 hours, read-out: Minimum Inhibitory Concentration, Ec): 250 µg/mL; MIC [4, 18]: 2.5 µg/mL; MIC (Bacillus subtilis (Bs); pH 8.2, nutrient agar, 30° C., 48 hours, read-out: Minimum Inhibitory Concentration, Bs): 50 µg/mL; MIC (Fusarium oxysporum (Fo); [34]): 10 µg/mL; MIC (Trichoderma viride (Tv); [37]): 25 µg/mL; MIC ([6]; pH 8.2, nutrient agar, 30° C., 48 hours, read-out: Minimum Inhibitory Concentration, Kp): 100 µg/mL; MIC [7, 26]: 100 µg/mL; MIC ([7]; pH 8.2, nutrient agar, 30° C., 48 hours, read-out: Minimum Inhibitory Concentration, SC): 250 µg/mL; MIC ([9]; pH 6.8, nutrient agar, 30° C., 48 hours, read-out: Minimum Inhibitory Concentration, Ea): 250 µg/mL"
"COc1ccc(-c2nsnc2SC#N)cc1 [Example VIII, 4-(4-Methoxyphenyl)-3-thiocyanato-1,2,5-thiadiazole]",> 500,> 500,> 500,–,> 500,> 500,> 500,> 500,–,> 500,> 500,> 500,> 500,> 500,> 500,> 500,100,> 500,25,9,"MIC [1, 10]: > 500 µg/mL; MIC ([3]; pH 5.5, malt yeast agar, 30° C., 72 hours for fungi, read-out: Minimum Inhibitory Concentration, PC): > 500 µg/mL; MIC [4, 32]: 9 µg/mL; MIC (Bacillus subtilis (Bs); 48 h, pH 6.8, read-out: Minimum Inhibitory Concentration, Bs): 100 µg/mL; MIC (Fusarium oxysporum (Fo); [21]): 50 µg/mL; MIC (Trichoderma viride (Tv); [37]): 9 µg/mL; MIC [7, 35]: > 500 µg/mL"
